Source: publication PMC7601695, “Transcriptome Analysis of Psacothea hilaris: De Novo Assembly and Antimicrobial Peptide Prediction” (Insects, 2020)

Experiments:
Format in all cases: cell-based
[1] = test system: Escherichia coli (KACC 13821, ATCC 11775); test: Radial diffusion assay, E. coli; conditions: for Diameter of clearing zone, E. coli: peptide 200 μg/mL, 5 μL per 3-mm well, 3 h diffusion then 12 h at 37 °C, mean of tests repeated three times; for Antimicrobial activity compared with melittin, E. coli: in words
Protocol: (§1) The bacterial strains Escherichia coli (KACC 13821, ATCC 11775) and Staphylococcus aureus (KACC 10768, ATCC 25923), and the yeast strain Candida albicans (KCTC 7121, ATCC 14053) were purchased from the Korean Agricultural Culture Collection (KACC) and Korean Collection for Type Cultures (KCTC). Both bacteria and yeast were grown overnight in tryptic soy broth (TSB; Difco, Thermo Fisher Scientific, Waltham, MA, USA) at 37 °C, 200 rpm to the stationary phase. Bacteria were re-inoculated in fresh TSB medium and cultivated for 3 h to the log phase. The strains were stored with 15% glycerol at −70 °C.
(§2) The radial diffusion assay was performed to test the antimicrobial activities of peptides, as described previously with slight modifications. In brief, bacteria and yeast strains were grown to the mid-logarithmic phase in TSB at 37 °C and then washed twice with 10 mM sodium phosphate buffer (pH 7.4). A total of 4 × 10^6 colony forming unit (CFU) was added to 10 mL of an underlay agarose gel (9 mM sodium phosphate, 1 mM sodium citrate, pH 7.4, 1% (w/v) Type I (low electroendosmosis) agarose (Sigma, St. Louis, MO, USA), and 3% TSB (Difco, USA)). The underlay gel was poured into a 100-mm INTEGRIDTM Petri dish. After agarose solidification, 3-mm-diameter wells were punched and 5 μL of each peptide solution was added to each well. Buffer alone was used as a negative control. Plates were incubated at 37 °C for 3 h to allow for diffusion of the peptides. The underlay gel was then covered with 10 mL of nutrient-rich agar overlay (6% TSB and 1% agarose). The antimicrobial activity of a peptide was measured as the diameter of the cleared zone around each well after 12 h of incubation at 37 °C. This experiment was repeated at least 3 times.

[2] = test system: Staphylococcus aureus (KACC 10768, ATCC 25923); test: Radial diffusion assay, S. aureus; conditions: peptide 200 μg/mL, 5 μL per 3-mm well, 3 h diffusion then 12 h at 37 °C, mean of tests repeated three times
Protocol: as §1, §2

[3] = test system: Candida albicans (KCTC 7121, ATCC 14053); test: Radial diffusion assay, C. albicans; conditions: for Diameter of clearing zone, C. albicans: peptide 200 μg/mL, 5 μL per 3-mm well, 3 h diffusion then 12 h at 37 °C, mean of tests repeated three times; for Antimicrobial activity compared with melittin, C. albicans: in words
Protocol: as §1, §2

[4] = test system: mouse erythrocytes; test: Hemolytic assay; conditions: 12.5 μg/mL; 2.5% (v/v) mouse erythrocytes in PBS; 30 min, 37 °C; A540
Protocol: This experiment was approved by the Institutional Animal Care and Use Committee (IACUC) of the National Institute of Agricultural Sciences (approval number: NAS-202014). The hemolytic activity of the peptides was determined by monitoring the release of hemoglobin from mouse erythrocytes at 540 nm. For the hemolytic assay, 20 μL of each peptide solution at a predetermined concentration was added to 180 μL of a 2.5% (v/v) suspension of mouse erythrocytes in phosphate-buffered saline (PBS). Melittin (Sigma), a hemolytic and α-helical peptide isolated from bee venom, were used as the positive control. This mixture was incubated for 30 min at 37 °C, and 600 μL of PBS was then added to each tube. After 3 min of centrifugation at 10,000× g, the supernatant was […], and the absorbance was measured at 540 nm. Evaluations were made from the results of at least three independent experiments, each carried out in triplicate.
Figure 4 Cytotoxic effects of 13 selected peptides. Hemolytic activity of the peptides. Peptide concentration (x-axis) is plotted against the percentage of hemolysis (y-axis) of mouse red blood cells after incubation for 30 min. Melittin was used as the positive control. The percent hemolysis was calculated with the following equation: hemolysis (%) = (A540 of samp—A540 of peptide-free control)/(A540 of 100% control—A540 of peptide-free control) × 100. […]

Row | Compound | Diameter of clearing zone, E. coli [1] | Diameter of clearing zone, S. aureus [2] | Diameter of clearing zone, C. albicans [3] | Antimicrobial activity compared with melittin, E. coli [1] | Antimicrobial activity compared with melittin, C. albicans [3] | Hemolysis of mouse red blood cells [4] [%]
1 | RCLKTCFLSFIRY * [Ph 8, synthetic peptide predicted as novel AMP from the P. hilaris transcriptome] | 71 Units (1 mm = 10 Units) | 83 Units (1 mm = 10 Units) | 45 Units (1 mm = 10 Units) |  |  | 
2 | KLPIVNVKLVNRIK * [Ph 2, synthetic peptide predicted as novel AMP from the P. hilaris transcriptome] | 80 Units (1 mm = 10 Units) | 90 Units (1 mm = 10 Units) | 80 Units (1 mm = 10 Units) | stronger antimicrobial activity than melittin | stronger antimicrobial activity than melittin | 
3 | RRRCRCCRY * [Ph 14, synthetic peptide predicted as novel AMP from the P. hilaris transcriptome] | 65 Units (1 mm = 10 Units) | 70 Units (1 mm = 10 Units) | 105 Units (1 mm = 10 Units) |  | stronger antimicrobial activity than melittin | 
4 | RLLLLCYACGKS * [Ph 12, synthetic peptide predicted as novel AMP from the P. hilaris transcriptome] | 70 Units (1 mm = 10 Units) | 75 Units (1 mm = 10 Units) | 40 Units (1 mm = 10 Units) |  |  | 
5 | KRIFYLYIRGQ * [Ph 22, synthetic peptide predicted as novel AMP from the P. hilaris transcriptome] | 85 Units (1 mm = 10 Units) | 95 Units (1 mm = 10 Units) | 92 Units (1 mm = 10 Units) | stronger antimicrobial activity than melittin | stronger antimicrobial activity than melittin | 
6 | KLSNAVFKSCRKI * [Ph 24, synthetic peptide predicted as novel AMP from the P. hilaris transcriptome] | 49 Units (1 mm = 10 Units) | 65 Units (1 mm = 10 Units) | 47 Units (1 mm = 10 Units) |  |  | 
7 | RAIKWPGNGLLFLKY * [Ph 1, synthetic peptide predicted as novel AMP from the P. hilaris transcriptome] | 85 Units (1 mm = 10 Units) | 86 Units (1 mm = 10 Units) | 65 Units (1 mm = 10 Units) | stronger antimicrobial activity than melittin |  | 
8 | RKSWRHWKC * [Ph 16, synthetic peptide predicted as novel AMP from the P. hilaris transcriptome] | 50 Units (1 mm = 10 Units) | 87 Units (1 mm = 10 Units) | 65 Units (1 mm = 10 Units) |  |  | 
9 | KLQVVPAIHLVWLQK * [Ph 4, synthetic peptide predicted as novel AMP from the P. hilaris transcriptome] | 75 Units (1 mm = 10 Units) | 80 Units (1 mm = 10 Units) | 30 Units (1 mm = 10 Units) |  |  | 
10 | KIGTFIKKLSYTS * [Ph 26, synthetic peptide predicted as novel AMP from the P. hilaris transcriptome] | 85 Units (1 mm = 10 Units) | 75 Units (1 mm = 10 Units) | 25 Units (1 mm = 10 Units) | stronger antimicrobial activity than melittin |  | 
11 | CC[C@H](C)[C@H](NC(=O)CN)C(=O)NCC(=O)N[C@@H](C)C(=O)N[C@H](C(=O)N[C@@H](CC(C)C)C(=O)N[C@@H](CCCCN)C(=O)N[C@H](C(=O)N[C@@H](CC(C)C)C(=O)N[C@H](C(=O)N[C@H](C(=O)NCC(=O)N[C@@H](CC(C)C)C(=O)N1CCC[C@H]1C(=O)N[C@@H](C)C(=O)N[C@@H](CC(C)C)C(=O)N[C@H](C(=O)N[C@@H](CO)C(=O)N[C@@H](Cc1c[nH]c2ccccc12)C(=O)N[C@H](C(=O)N[C@@H](CCCCN)C(=O)N[C@@H](CCCNC(=N)N)C(=O)N[C@@H](CCCCN)C(=O)N[C@@H](CCCNC(=N)N)C(=O)N[C@@H](CCC(N)=O)C(=O)N[C@@H](CCC(N)=O)C(N)=O)[C@@H](C)CC)[C@@H](C)CC)[C@@H](C)O)[C@@H](C)O)C(C)C)C(C)C [Melittin, reference compound] | 75 Units (1 mm = 10 Units) | 100 Units (1 mm = 10 Units) | 65 Units (1 mm = 10 Units) |  |  | 92
12 | RISCVAMRLILK * [Ph 10, synthetic peptide predicted as novel AMP from the P. hilaris transcriptome] | 67 Units (1 mm = 10 Units) | 72 Units (1 mm = 10 Units) | 48 Units (1 mm = 10 Units) |  |  | 
13 | KMFTKCIRYRKM * [Ph 20, synthetic peptide predicted as novel AMP from the P. hilaris transcriptome] | 65 Units (1 mm = 10 Units) | 85 Units (1 mm = 10 Units) | 68 Units (1 mm = 10 Units) |  |  | 
14 | KRGYQVPRIAFII * [Ph 3, synthetic peptide predicted as novel AMP from the P. hilaris transcriptome] | 72 Units (1 mm = 10 Units) | 85 Units (1 mm = 10 Units) | 80 Units (1 mm = 10 Units) |  | stronger antimicrobial activity than melittin | 
